Experimental data from US20240002351A1, “QUINAZOLIN-4-ONE AND THIENO[2,3-D]PYRIMIDIN-4-ONE INHIBITORS OF ERBB4 (HER4) FOR USE IN THE TREATMENT OF CANCER” (UNIVERSITEIT ANTWERPEN, priority 2021, published 2024).

Legend:
[1] = biological target: T1, ERBB4 (Homo sapiens, UniProt Q15303); assay: PathHunter ERBB4/ERBB4 dimerization assay, dose-response curves; type: cell-based; details: U2OS ERBB4/ERBB4 dimerization cell line, 6 hours, compound alone; for Emax: NRG-1 = 100
T1 construct: host or cells: U2OS
T1 sequence (Q15303 26-1308): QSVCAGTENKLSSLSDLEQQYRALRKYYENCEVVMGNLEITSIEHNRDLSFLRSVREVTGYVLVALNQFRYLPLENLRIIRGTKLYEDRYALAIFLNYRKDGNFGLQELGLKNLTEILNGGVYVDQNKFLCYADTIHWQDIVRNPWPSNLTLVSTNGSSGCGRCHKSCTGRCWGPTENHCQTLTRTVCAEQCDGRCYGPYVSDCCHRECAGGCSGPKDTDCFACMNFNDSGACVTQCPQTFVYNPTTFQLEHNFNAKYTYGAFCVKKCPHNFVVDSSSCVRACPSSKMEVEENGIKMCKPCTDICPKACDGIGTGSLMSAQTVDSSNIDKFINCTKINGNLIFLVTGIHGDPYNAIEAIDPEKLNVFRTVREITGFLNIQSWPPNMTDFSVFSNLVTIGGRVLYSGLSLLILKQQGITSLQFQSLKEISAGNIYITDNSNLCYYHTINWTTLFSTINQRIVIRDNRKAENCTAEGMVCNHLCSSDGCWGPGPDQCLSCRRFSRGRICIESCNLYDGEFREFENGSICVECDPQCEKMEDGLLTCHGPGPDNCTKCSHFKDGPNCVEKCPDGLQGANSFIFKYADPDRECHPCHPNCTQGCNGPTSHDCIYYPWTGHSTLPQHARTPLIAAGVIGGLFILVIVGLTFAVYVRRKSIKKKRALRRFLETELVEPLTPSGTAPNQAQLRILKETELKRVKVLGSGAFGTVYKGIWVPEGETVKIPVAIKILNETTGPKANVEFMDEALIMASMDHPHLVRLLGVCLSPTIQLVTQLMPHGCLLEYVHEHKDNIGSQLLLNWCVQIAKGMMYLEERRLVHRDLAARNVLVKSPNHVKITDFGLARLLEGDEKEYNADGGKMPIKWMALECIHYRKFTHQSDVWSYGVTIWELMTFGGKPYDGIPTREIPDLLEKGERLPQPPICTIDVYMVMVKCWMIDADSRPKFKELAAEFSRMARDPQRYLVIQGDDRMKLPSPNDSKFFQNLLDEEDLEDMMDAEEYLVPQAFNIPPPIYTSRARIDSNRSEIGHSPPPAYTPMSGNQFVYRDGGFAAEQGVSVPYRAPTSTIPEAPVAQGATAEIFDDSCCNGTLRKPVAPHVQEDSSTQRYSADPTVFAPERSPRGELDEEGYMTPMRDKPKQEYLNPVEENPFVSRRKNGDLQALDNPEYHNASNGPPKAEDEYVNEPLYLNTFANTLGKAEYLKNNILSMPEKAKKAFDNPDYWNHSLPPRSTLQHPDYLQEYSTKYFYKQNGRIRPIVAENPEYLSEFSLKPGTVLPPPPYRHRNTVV
Experimental: (§1) Following 1-12 passages, U2OS ERBB4/ERBB4 dimerization cell line (Eurofins, 93-0961C3) were seeded at 10,000 cells/well in 100 μL cell plating reagent (Eurofins, 93-0563R0A) in white walled 96-well plates (PerkinElmer, 6005680) and incubated for 24h at 37° C. in humidified atmosphere of 5% CO2 in air. Cells were treated with 10 μL of compound (prepared at 11×, Enamine), 10 μM Heregulin-β1 (NRG-1) (DiscoverX, 92-1031 or Peprotech, 100-03) or PBS. […] Cells were subsequently incubated for 6 hours at 37° C., 5% CO2. Then 110 μL PathHunter Flash Detection Reagents (93-0247) were added to each well and cells were incubated at room temperature for 1 hour (covered from light). Afterwards luminescence signal was measured using the Luminoskan Ascent (Thermofisher). Dose response curves of the compounds were performed in 2-fold (0,0625 μM-32 μM).
From these curves, the EC50 and the Emax of the compounds was calculated.

[2] = biological target: T1, ERBB4; assay: PathHunter ERBB4/ERBB4 dimerization assay, compounds on top of 0.1 μM NRG-1 (identification of modulators); type: cell-based; details: for EC50: on top of 0.1 μM NRG1; for Emax: on top of 0.1 μM NRG1, relative to NRG1 (set as 100%); for behaviour from the shape of the dose-response curves: on top of 0.1 μM neuregulin-1 (FIG. 1)
Experimental: as §1
Cells were treated with compound (prepared at 22×, 10 min pre-incubation) together with NRG-1 (0.1 μM final concentration, Peprotech, 100-03), or NRG-1 (0.1 μM final concentration) or PBS.
The EC50 and the Emax of the compounds on top of 0.1 μM NRG1 is depicted in Table 3 relative to NRG1 (set as 100%).

[3] = system: EFO-21 cells; assay: AK (adenylate kinase) toxicity assay; type: cell-based; details: 32 μM, 24 hours, EFO-21 cells (FIG. 3)
Experimental: EFO-21 cells were seeded at 10,000 cells/well in 100 μL cell medium in white walled 96-well plates (PerkinElmer, 6005680) and incubated overnight at 37° C. in humidified atmosphere of 5% CO2 in air. Next, cells were put on serum starved (SS) medium (0,1% FBS) overnight. Overnight cell cultures were then stimulated with PBS, compound (32 μM, Enamine) and/or NRG-1 (0.1 μM, Peprotech, 100-03) for 24 hours at 37° C. in humidified atmosphere of 5% CO2 in air. […] Next, 100 μL Toxilight AK detection reagent was added to each well and incubated at room temperature for 5 minutes. Luminescence was measured using the Luminoskan Ascent (Thermofisher).

[4] = system: Human atrial cardiac fibroblasts (HCF); assay: In vitro fibrosis assay, TGFβ-stimulated HCF (qRT-PCR); type: cell-based; details: TGFβ 10 ng/mL, 24 hours (FIG. 9)
Experimental: Human dermal fibroblasts (HDF, Cell applications, 106-05A) were cultured in Dulbecco's modified Eagle's medium (DMEM, ThermoFisher Scientific, 11995065) supplemented with 10% (v/v) heat-inactivated fetal bovine serum (FBS, ThermoFisher Scientific, 10082147), 1% penicillin/streptomycin and 1 mL polymyxin B and were maintained at 37° C. in humidified atmosphere of 5% CO2 in air. Human atrial cardiac fibroblasts (HCF, Innoprot, P10454) were cultured in fibroblast medium (Innoprot, P60108) supplemented with fetal bovine serum, fibroblast growth supplement and penicillin/streptomycin and were maintained at 37° C. in humidified atmosphere of 5% CO2 in air.
Following 1-9 passages, HDF and HCF were seeded at 0.3×10^6 cells/well in 1 mL cell medium in 12-well plates and incubated overnight at 37° C. in humidified atmosphere of 5% CO2 in air. Next, cells were put on serum starved medium (0.1% FBS) for 8 hours and then stimulated for 24 hours with either PBS, active compound (4-32 μM) or non-active compound (NA1, NA2; 4-32 μM) on top of TGFβ (10 ng/mL, Peprotech, 100-21). […] Next, cells were lysed using 100 μL lysis buffer RA1 (of RNA isolation kit below) supplemented with β-mercapto-ethanol (100:1), scraped with a cell scraper and transferred to centrifuge tubes to be stored at −20° C. for a maximum of 2 weeks before RNA isolation.
RNA was extracted using Nucleospin RNA XS (Machery Nagel) according to the manufacturer's instructions. For cDNA synthesis, total RNA was added to a solution containing buffer with random hexamers and reverse transcriptase enzyme. The PCR was performed using the following parameters: 10 minutes at 25° C., 30 minutes at 48° C., 5 minutes at 95° C. RT-qPCR on the cDNA samples was performed using Taqman Universal PCR Master Mix (Applied Biosystems) and Taqman primers according to the manufacturer's instructions. […] Expression levels were calculated using the comparative cycle method and expressed as fold change to appropriate (background) control. […]

[5] = Solubility in PBS (absorbance); type: physicochemical; details: aqueous buffer, kinetic from dmso stock, 37° C., 2 hours (FIG. 10), read-out: solubility: concentration at which easily soluble
Experimental: A dilution series (0.16, 0.31, 0.62, 1.25, 2.5 and 5 mM) was made starting with a compound stock solution of 10 mM in DMSO. Aliquot of 4 μL was taken out of every dilution and added to 196 μL PBS in a 96-well plate. The plate was shaken for 10 seconds, incubated at 37° C. for 2 hours and thereafter absorbance was measured. Samples were analyzed in duplicate.

[6] = Chemical stability; type: physicochemical; details: 37° C. and pH 7.4 for 24 hours (FIG. 11)
Experimental: A 10 μL aliquot of compound solution (10 mM in DMSO) was added to 990 μL DMSO (100 μM) and further diluted with […] to a stock solution of 500 nM. The mixture was incubated at 37° C. Aliquots of 100 μL were taken at various time points (0, 0.5, 1, 2, 3, 6 and 24 hrs) and analyzed with LC-MS/MS (Waters Acquity H-class UPLC system with ion trap mass spectrometer, Bruker Daltonics Esquire 3000 plus, and Agilent 1100 Series LC system). Samples were analyzed in triplicate and plotted against a standard curve; compound at 31-500 nM in buffer solution of pH 7.4 (10 mM Potassium Phosphate, BD Gentest).

[7] = Plasma stability, mouse plasma; type: in vitro ADME; details: 50 μM, 37° C., over 6 hours (FIG. 12)
Experimental: (§2) A 5 μL aliquot of compound solution (10 mM in DMSO) was added to 995 μL of Non Swiss Albino Mouse Plasma (DivBioScience, Breda, Netherlands) or Pooled Normal Human plasma in sodium citrate to obtain a final concentration of 50 μM compound in plasma. The mixture was gently shaken for 6 hours at 37° C. Aliquots of 100 μL were taken at various time points (0, 0.5, 1, 2 and 6 hrs.) and diluted with 400 μL of cold acetonitrile (Sigma-Aldrich, stored at 4° C.). The suspension was centrifuged at 14000 rpm for 5 min. Thereafter, 50 μL of the supernatant was diluted with 950 μL of acetonitrile and analyzed with LC-MS/MS (Waters Acquity H-class UPLC system with ion trap mass spectrometer, Bruker Daltonics Esquire 3000 plus, and Agilent 1100 Series LC system). Samples were analyzed in triplicate and plotted against a standard curve (compound at 3.12-100 μM in plasma and diluted in acetonitrile as described above).

[8] = Metabolic stability, human liver microsomes; type: in vitro ADME
Experimental: (§3) A mixture of 713 μL milliQ water (Millipore, MA, USA), 200 μL 0.5 M phosphate buffer (pH 7.4, BD Diagnostic Systems, MD, USA), 50 μL NADPH regenerating system solution A (BD Biosciences, CA, USA), 10 μL NADPH regenerating system solution B (BD Biosciences, CA, USA) and 2 μL compound (5 mM in DMSO) was prepared and heated for 5 min at 37° C. Twenty-five μL of liver microsomes (0.5 mg protein/mL, Corning B.V. Life Sciences, Amsterdam, Netherlands) was added to the mixture and 20 μL samples were withdrawn at 0, 0.25, 0.5 and 1, 2, 4, 6 and 24 hours. Eighty μL (4×20 μL) of cold acetonitrile (Sigma-Aldrich, MO, USA) was added to the samples on ice for 10 min. Afterwards, the mixtures were centrifuged at 13,000 rpm for 5 min at 4° C. Seventy-five μL of an acetonitrile/water (10/90) mixture was added to 25 μL supernatant and the obtained samples were analyzed by LC-MS/MS (Waters Acquity H-class UPLC system with ion trap mass spectrometer, Bruker Daltonics Esquire 3000 plus, and Agilent 1100 Series LC system) in triplicate.

[9] = Metabolic stability, mouse liver microsomes; type: in vitro ADME
Experimental: as §3

[10] = Plasma stability, human plasma; type: in vitro ADME; details: 50 μM, 37° C., over 6 hours (FIG. 12)
Experimental: as §2

| Compound | EC50 [1] [µM] | Emax [1] [%] | EC50 [2] [µM] | Emax [2] [%] | behaviour from the shape of the dose-response curves [2] | solubility at 2 h [5] [µM] | chemical stability [6] | plasma stability, mouse plasma [7] | t1/2 human ([8]; human liver microsomes) [min] | half-life at 10 µM ([8]; human, liver microsomes, pH 7.4, human liver microsomes, read-out: t1/2 human) [min] | t1/2 mouse ([9]; mouse liver microsomes) [min] | half-life at 10 µM ([9]; mouse, liver microsomes, pH 7.4, mouse liver microsomes, read-out: t1/2 mouse) [min] | plasma stability, human plasma [10] | toxicity (AK release) [3] | col1a1 levels in comparison with TGFβ control [4] |
| --- | --- | --- | --- | --- | --- | --- | --- | --- | --- | --- | --- | --- | --- | --- | --- |
| O=C1NCCCCC1Sc1nc2sc3c(c2c(=O)n1C1CCCC1)CCCC3 (stereo not drawn) [Compound 5] | 6.11 | 17.7 ± 3.45 | ~3.36 | 63 ± 14 | partial agonists or allosteric agonists functioning as partial agonists |  |  |  |  |  |  |  |  | limited toxicity |  |
| CC(=O)c1ccc(NC(=O)C(C)Sc2nc3ccccc3c(=O)n2C2CCCC2)cc1 (stereo not drawn) [Compound 2] | 10.9 | 9.48 ± 2.13 |  | 126 ± 36 | weak or silent allosteric modulators |  |  |  |  |  |  |  |  |  |  |
| CC(Sc1nc2ccccc2c(=O)n1C1CCCC1)C(=O)N(C)c1ccccc1 (stereo not drawn) [Compound 3] | 15.8 | 14.3 ± 2.63 |  | 36 ± 13 | partial agonists or allosteric agonists functioning as partial agonists |  |  |  |  |  |  |  |  | limited toxicity | significantly decrease col1a1 levels |

Now from value to compound, other results behind:

| EC50 [1] [µM] | Emax [1] [%] | EC50 [2] [µM] | Emax [2] [%] | behaviour from the shape of the dose-response curves [2] | solubility at 2 h [5] [µM] | chemical stability [6] | plasma stability, mouse plasma [7] | t1/2 human ([8]; human liver microsomes) [min] | half-life at 10 µM ([8]; human, liver microsomes, pH 7.4, human liver microsomes, read-out: t1/2 human) [min] | t1/2 mouse ([9]; mouse liver microsomes) [min] | half-life at 10 µM ([9]; mouse, liver microsomes, pH 7.4, mouse liver microsomes, read-out: t1/2 mouse) [min] | plasma stability, human plasma [10] | Compound | toxicity (AK release) [3] | col1a1 levels in comparison with TGFβ control [4] |
| --- | --- | --- | --- | --- | --- | --- | --- | --- | --- | --- | --- | --- | --- | --- | --- |
| 20.4 | 18.4 ± 3.47 |  | 174 ± 38 | ago-allosteric modulators |  |  |  |  |  |  |  |  | Cc1sc2cc(SCC(=O)NC(C)(C#N)C(C)C)n(C3CCCC3)c(=O)c2c1C (stereo not drawn) [Compound 8] |  |  |
| 7.54 | 16.9 ± 3.69 | ~21.5 | 192 ± 34 | ago-allosteric modulators | < 25 | chemically stable | stable | 18 | 17 to 18 | 12 | 8 to 12 | stable | CC(C)n1c(SC(C(=O)NC2CC2)c2ccccc2)nc2sc3c(c2c1=O)CCC3 (stereo not drawn) [Compound 4] |  |  |
